Data reported in the supplement of paper PMC8633005.

Columns and labels:
Assay in all cases: drug sensitivity score (DSS) (DSS (unitless, 0-50 scale)); higher = more sensitive (stronger viability inhibition); extreme values may be limits of the assay
Settings in all cases: 72 h; culture: 2D
FM-MEL-3 = test system: FM-MEL-3
Procedure, shortened: (§1)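 Drug sensitivity scores, modified area-under-curve measures, were derived from dose-response curves fitted in the in-house Breeze software. The curves came from melanoma cell lines and patient-derived melanoma cultures (1000–1500 cells per well) grown in 2D in 384-well plates holding a 527-compound oncology library. Each compound was dissolved in DMSO or water and tested at five concentrations across a 10,000-fold range. Viability was read by CellTiter-Glo luminescence after 72 h at 37 °C.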

SK-MEL-2 = test system: SK-MEL-2
Procedure, shortened: as §1

FM-MEL-6 = test system: FM-MEL-6
Procedure, shortened: as §1

WM165 = test system: WM165
Procedure, shortened: as §1

WM852 = test system: WM852
Procedure, shortened: as §1

FM-MEL-2 = test system: FM-MEL-2
Procedure, shortened: as §1

SK-MEL-28 = test system: SK-MEL-28
Procedure, shortened: as §1

Bowes = test system: Bowes
Procedure, shortened: as §1

Row | SMILES | drug sensitivity score (FM-MEL-3) | drug sensitivity score (SK-MEL-2) | drug sensitivity score (FM-MEL-6) | drug sensitivity score (WM165) | drug sensitivity score (WM852) | drug sensitivity score (FM-MEL-2) | drug sensitivity score (SK-MEL-28) | drug sensitivity score (Bowes)
1 | CCOCc1nc2c(N)nc3ccccc3c2n1CC(C)(C)O [Resiquimod] | 0 | 0 | 0.2 | 0 | 0.4 | 0 | 0 | 0.1
2 | C[C@]12CC[C@H](O)CC1=CC[C@@H]1[C@@H]2CC[C@]2(C)C(c3cccnc3)=CC[C@@H]12 [Abiraterone] | 0 | 0 | 0 | 0 | 0 | 0 | 0 | 0
3 | Cn1ncc(Cl)c1-c1cc(C(=O)N[C@H](CN)Cc2cccc(F)c2)sc1Cl [Afuresertib] | 1.9 | 0 | 2.3 | 1.5 | 0.5 | 1.5 | 1 | 0
4 | Cc1cccc(-c2nn3c(c2-c2ccnc4ccc(C(N)=O)cc24)CCC3)n1 [Galunisertib] | 0 | 0 | 0 | 0 | 0 | 0 | 0 | 0
5 | C[C@@H]1CN(Cc2ccc(F)cc2)[C@@H](C)CN1C(=O)c1cc2c(C(=O)C(=O)N(C)C)cn(C)c2cc1Cl [Talmapimod] | 0 | 0 | 0 | 0 | 0 | 0 | 0 | 0
6 | NS(=O)(=O)OC[C@@H]1C[C@@H](n2ccc3c(N[C@H]4CCc5ccccc54)ncnc32)C[C@@H]1O [Pevonedistat] | 12.4 | 11.7 | 7.8 | 20 | 11.7 | 6.2 | 7 | 10.9
7 | CN1CC[C@@H](NC(=O)Nc2ccc(C#N)cc2)C[C@@H]1c1nc2ccccc2[nH]1 [Glasdegib] | 0 | 0 | 0 | 0 | 0 | 0 | 0 | 0
8 | CC(C)C[C@H](NC(=O)[C@H](CCc1ccccc1)NC(=O)CN1CCOCC1)C(=O)N[C@@H](Cc1ccccc1)C(=O)N[C@@H](CC(C)C)C(=O)[C@@]1(C)CO1 [Carfilzomib] | 17.4 | 22.5 | 20.4 | 29.6 | 24.5 | 11 | 17 | 31.7
9 | CNC(=O)c1ccc2cc([C@@]3(O)CCn4cncc43)ccc2c1 [Orteronel] | 0 | 0 | 0 | 0 | 0 | 0 | 0 | 0
10 | Cc1[nH]nc(C(F)(F)F)c1Cc1sc2c(c1C(=O)N1C[C@](C)(O)CO1)c(=O)n(C)c(=O)n2C(C)C [AZD3965] | 0 | 0 | 0.3 | 0 | 0 | 0 | 0 | 8
11 | CCc1cnn2c(NCc3ccc[n+]([O-])c3)cc(N3CCCC[C@H]3CCO)nc12 [Dinaciclib] | 18.5 | 21.2 | 21.7 | 22.4 | 20 | 13.1 | 20.2 | 30.7
12 | CC(C)(C)c1cc(NC(=O)Nc2ccc(Oc3ccnc4[nH]c(=O)cnc34)cc2F)n(-c2ccccc2)n1 | 14.5 | 4.5 | 4.2 | 12.6 | 5.3 | 11.6 | 10.3 | 10.7
13 | COc1cc(OC)cc(N(CCNC(C)C)c2ccc3ncc(-c4cnn(C)c4)nc3c2)c1 [Erdafitinib] | 0 | 0 | 0 | 0 | 0.8 | 0 | 0 | 2.4
14 | CC(=O)O[C@@]12CO[C@@H]1C[C@H](O)[C@@]1(C)C(=O)[C@H](O)C3=C(C)[C@@H](OC(=O)[C@H](O)[C@@H](NC(=O)OC(C)(C)C)c4ccccc4)C[C@@](O)([C@@H](OC(=O)c4ccccc4)[C@H]21)C3(C)C [Docetaxel] | 10.9 | 16.4 | 14.7 | 25.1 | 20.7 | 6.5 | 12.7 | 28.8
15 | CONC(=O)c1ccccc1Nc1cc(Nc2cc(C)nn2C(C)C)ncc1Cl | 1.5 | 0 | 0 | 0.1 | 0 | 0.2 | 0 | 0.5
16 | Cc1ccc(C(=O)Nc2cccc(C(F)(F)F)c2)cc1Nc1nc(-c2cccnc2)nc2c1cnn2C [NVP-BHG712] | 10.6 | 0 | 3.6 | 1.9 | 4.7 | 6.8 | 1.3 | 0
17 | CS(=O)(=O)c1ccc(-c2cnc(N)c(C(=O)Nc3ccccc3)n2)cc1 [VE-821] | 1.6 | 0 | 0 | 0 | 2.6 | 0 | 0 | 3.1
18 | Cn1nnc2c(C(N)=O)ncn2c1=O [Temozolomide] | 0 | 0 | 0 | 0 | 0 | 0 | 0 | 0
19 | O=C(c1ccc(C(=O)N2CCC(N3CCCC3)CC2)c(Nc2ccccc2)c1)N1CCC(N2CCCC2)CC1 [UNC1215] | 0 | 0 | 0 | 0 | 0 | 0 | 0 | 0
20 | CC[C@@H]1C(=O)N(C)c2cnc(Nc3ccc(C(=O)NC4CCN(C)CC4)cc3OC)nc2N1C1CCCC1 [BI 2536] | 4.3 | 10.5 | 6.7 | 19.6 | 18 | 1.7 | 3.5 | 19.7
21 | CCCCNc1ncc(C(=O)NCc2ccc(-n3ccnc3)cc2)c(NC2CCC(O)CC2)n1 (stereo not drawn) [UNC2881] | 0 | 0 | 0 | 0 | 0 | 2.2 | 0 | 0

Row | SMILES | drug sensitivity score (FM-MEL-3) | drug sensitivity score (SK-MEL-2) | drug sensitivity score (FM-MEL-6) | drug sensitivity score (WM165) | drug sensitivity score (WM852) | drug sensitivity score (FM-MEL-2) | drug sensitivity score (SK-MEL-28) | drug sensitivity score (Bowes)
22 | COc1cc(C)c(/C=C/C(C)=C/C=C/C(C)=C/C(=O)O)c(C)c1C [Acitretin] | 1.3 | 0 | 1.6 | 0 | 0 | 0 | 0 | 2.6
23 | CC(C)(C)NC(=O)[C@H]1CC[C@H]2[C@@H]3CC[C@H]4NC(=O)C=C[C@]4(C)[C@H]3CC[C@]12C [Finasteride] | 0 | 0 | 0 | 0 | 0 | 0 | 0 | 0
24 | COCCOc1cnc2ccn([C@H](C)c3nnc4c(F)cc(-c5cnn(C)c5)cn34)c(=O)c2c1 [AMG-337] | 0 | 0 | 0 | 0 | 0 | 0 | 0 | 0
25 | O=C(O)c1ccc2c(c1)nc(Nc1cccc(Cl)c1)c1ccncc12 [Silmitasertib] | 9.2 | 2.7 | 3.4 | 7.3 | 2.4 | 3.2 | 2.3 | 3.3
26 | COc1cc(Nc2ncc3c(n2)-c2ccc(Cl)cc2C(c2c(F)cccc2OC)=NC3)ccc1C(=O)O [Alisertib] | 3.1 | 0 | 0.5 | 13.7 | 0 | 0.5 | 3.2 | 18.5
27 | C[C@H](Nc1ncnc2nc[nH]c12)c1cc2cccc(Cl)c2c(=O)n1-c1ccccc1 [Duvelisib] | 0 | 0 | 0 | 0 | 0 | 2.3 | 1.3 | 0
28 | C[C@]12CC[C@@H]3c4ccc(O)cc4C[C@@H](CCCCCCCCC[S+]([O-])CCCC(F)(F)C(F)(F)F)[C@H]3[C@@H]1CC[C@@H]2O (stereo partly drawn) [Fulvestrant] | 0 | 0 | 0 | 0 | 0 | 0 | 0 | 0
29 | O=C(/C=C/c1cccc(S(=O)(=O)Nc2ccccc2)c1)NO [Belinostat] | 12.5 | 13.6 | 13.9 | 17.7 | 5.7 | 9.4 | 10.6 | 7.9
30 | CC1(C)CCC(CN2CCN(c3ccc(C(=O)NS(=O)(=O)c4ccc(NCC5CCOCC5)c([N+](=O)[O-])c4)c(Oc4cnc5[nH]ccc5c4)c3)CC2)=C(c2ccc(Cl)cc2)C1 [Venetoclax] | 3.6 | 0 | 0 | 0 | 0 | 0 | 0 | 0
31 | CC[C@@H]1C(=O)OC[C@@H]1Cc1cncn1C [Pilocarpine] | 1.5 | 0 | 0 | 0 | 0 | 0 | 0 | 0
32 | CO[C@@H](C)Cn1c(=O)n(C)c2cnc3ccc(-c4cncc(C(C)(C)O)c4)cc3c21 | 8.9 | 7.3 | 9.3 | 12 | 7.5 | 9.6 | 7.9 | 10.4
33 | O=C(CCNC(=O)c1ccc(OC(F)(F)F)cc1)N[C@@H]1CCCc2ccccc21 [ML390] | 6.7 | 0 | 1.2 | 6.8 | 0 | 0 | 2.8 | 0
34 | CC[C@@H]1CN(C(=O)NCC(F)(F)F)C[C@@H]1c1cnc2cnc3[nH]ccc3n12 [Upadacitinib] | 3.1 | 0 | 3.6 | 0 | 2.1 | 3.6 | 0.3 | 0
35 | COc1cc(N2CCN(C)CC2)ccc1Nc1nccc(-c2cn(C)c3cnccc23)n1 [AZ191] | 0.6 | 0 | 0 | 2.7 | 1.9 | 2.4 | 0 | 3.4
36 | Cc1cc([C@@H](C)Nc2ccccc2C(=O)O)c2nc(N3CCOCC3)cc(=O)n2c1 [AZD-6482] | 1.7 | 0 | 1.4 | 0.5 | 0.4 | 1.9 | 3.3 | 1.2
37 | CC(C)c1cc(C(=O)N2Cc3ccc(CN4CCN(C)CC4)cc3C2)c(O)cc1O [Onalespib] | 14.2 | 8 | 4.2 | 15 | 5.7 | 7.1 | 6.9 | 13.3
38 | COCC[n+]1c2c(n(Cc3cnccn3)c1C)C(=O)c1ccccc1C2=O [Sepantronium bromide] | 41 | 36.2 | 22.3 | 43.2 | 35.2 | 21.9 | 34.4 | 34.6
39 | CN[C@@H](C)C(=O)N[C@H](C(=O)N1CCC[C@H]1c1nc(C(=O)c2ccc(F)cc2)cs1)C1CCCCC1 [NVP-LCL161] | 4.5 | 0.2 | 3.9 | 0 | 2.4 | 14.9 | 0.9 | 3
40 | CC1(COc2ccc3c(c2)ncn3-c2ccc3cccc(N4CCC(N)CC4)c3n2)COC1 [Crenolanib] | 1.5 | 5.4 | 5.4 | 7 | 6.6 | 5 | 6.8 | 4.6
41 | C[C@@H]1COC(Nc2ccc3ncnc(Nc4ccc(OCc5nccs5)c(Cl)c4)c3c2)=N1 [Varlitinib] | 2.2 | 0 | 0 | 0 | 1.7 | 5.7 | 0.3 | 0
